Structures are written as SMILES. Read-outs that look alike come from different tables or passages of the source.

Data set [1] deals with A549 cell line (lung cancer). The data set is described as follows: MTT cytotoxicity assay, A549. Conditions: Homo sapiens, 72 h, average of two separate determinations, NA: No Activity. In kind it is cell-based. As for the experimental part: (§1) The target compounds 12a–g, 13a–g and 14a–g were evaluated for their in vitro cytotoxicity against three cancer cell lines (A549, PC-3 and MCF-7) by the standard MTT assay, with compound II and GDC-0941 as positive controls. […] The results expressed as inhibition rates or IC50 values are summarized in Table 1 and Table 2, where the values are the average of at least two independent experiments.
(§2) The in vitro cytotoxic activity of all the compounds 12a–g, 13a–g and 14a–g was evaluated with the A549, PC-3 and MCF-7 cell lines by the standard MTT assay, with compounds II and GDC-0941 as positive controls. The cancer cell lines were cultured in minimum essential medium (MEM) supplement with 10% fetal bovine serum (FBS). Approximately 4 × 10^3 cells, suspended in MEM medium, were plated onto each well of a 96-well plate and incubated in 5% CO2 at 37 °C for 24 h. The test compounds at indicated final concentrations were added to the culture medium and the cell cultures were continued for 72 h. Fresh MTT was added to each well at a terminal concentration of 5 μg/mL and incubated with cells at 37 °C for 4 h. The formazan crystals were dissolved in 100 μL of DMSO in each well, and the absorbance at 492 nm (for the MTT formazan) and 630 nm (for the reference wavelength) was measured with an ELISA reader. All of the compounds were tested three times in each of the cell lines. The results expressed as inhibition rates or IC50 (half-maximal inhibitory concentration) were the averages of two determinations and calculated by using the Bacus Laboratories Incorporated Slide Scanner (Bliss) software (the Bacus Laboratories Inc. Slide Scanner (BLISS) system, Lombard, IL, USA).
In general terms: Tetrazolium dyes change colour on reduction, which living cells bring about.

In data set [2] the test system is PC-3 cell line (prostate cancer). The data set is described as follows: MTT cytotoxicity assay, PC-3. Format: cell-based. The conditions noted are these: Homo sapiens, 72 h, average of two separate determinations, NA: No Activity. As for the experimental part: as §1, §2
For data set [3], the system named is MCF-7 cell line (breast cancer). The data set is described as follows: MTT cytotoxicity assay, MCF-7. Format: cell-based. The conditions noted are these: Homo sapiens, MCF7, 72 h, average of two separate determinations, NA: No Activity. The procedure: as §1, §2
The target in the next data set is PI3Kα kinase (Homo sapiens, UniProt P42336). The data set is described as follows: Kinase-Glo Luminescent Kinase Assay, PI3Kα. Format: biochemical.
The subject of the next data set is PI3Kα. The conditions noted are these: cited from earlier work.
For a further data set, the system named is mTOR. Further details: method as in PMID 17339109. The conditions noted are these: read-out: IC50 against mTOR; cited from earlier work.

PI3Kα kinase, sequence (P42336 whole entry): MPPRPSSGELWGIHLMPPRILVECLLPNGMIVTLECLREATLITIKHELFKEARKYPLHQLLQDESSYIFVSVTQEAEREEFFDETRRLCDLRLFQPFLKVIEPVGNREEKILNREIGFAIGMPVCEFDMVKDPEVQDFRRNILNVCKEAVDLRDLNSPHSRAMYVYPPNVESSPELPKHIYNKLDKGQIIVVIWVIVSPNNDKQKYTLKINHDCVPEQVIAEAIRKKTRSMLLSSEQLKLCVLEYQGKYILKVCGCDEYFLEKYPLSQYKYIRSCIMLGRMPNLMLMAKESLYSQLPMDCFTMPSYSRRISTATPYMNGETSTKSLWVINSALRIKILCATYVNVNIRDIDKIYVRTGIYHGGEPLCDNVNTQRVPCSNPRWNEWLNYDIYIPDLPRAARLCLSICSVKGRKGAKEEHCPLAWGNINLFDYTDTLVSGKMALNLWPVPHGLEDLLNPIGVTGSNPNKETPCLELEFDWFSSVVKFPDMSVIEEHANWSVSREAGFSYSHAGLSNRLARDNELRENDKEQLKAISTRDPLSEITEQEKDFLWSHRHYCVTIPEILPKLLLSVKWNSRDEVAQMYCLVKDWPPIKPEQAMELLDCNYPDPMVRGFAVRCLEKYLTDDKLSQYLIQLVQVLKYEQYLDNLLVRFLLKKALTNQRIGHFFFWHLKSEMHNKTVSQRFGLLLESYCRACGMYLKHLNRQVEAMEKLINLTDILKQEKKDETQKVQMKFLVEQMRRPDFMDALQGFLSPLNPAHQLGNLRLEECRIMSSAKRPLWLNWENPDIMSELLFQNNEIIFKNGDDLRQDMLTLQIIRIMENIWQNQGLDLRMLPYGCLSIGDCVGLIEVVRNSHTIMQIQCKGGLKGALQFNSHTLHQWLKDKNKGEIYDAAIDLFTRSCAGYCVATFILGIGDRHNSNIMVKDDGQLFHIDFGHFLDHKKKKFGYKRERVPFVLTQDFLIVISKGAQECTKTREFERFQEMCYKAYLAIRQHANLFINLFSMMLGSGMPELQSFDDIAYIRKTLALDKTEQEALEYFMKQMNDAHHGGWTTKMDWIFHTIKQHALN
PI3Kα kinase, sequence (P27986 whole entry partner): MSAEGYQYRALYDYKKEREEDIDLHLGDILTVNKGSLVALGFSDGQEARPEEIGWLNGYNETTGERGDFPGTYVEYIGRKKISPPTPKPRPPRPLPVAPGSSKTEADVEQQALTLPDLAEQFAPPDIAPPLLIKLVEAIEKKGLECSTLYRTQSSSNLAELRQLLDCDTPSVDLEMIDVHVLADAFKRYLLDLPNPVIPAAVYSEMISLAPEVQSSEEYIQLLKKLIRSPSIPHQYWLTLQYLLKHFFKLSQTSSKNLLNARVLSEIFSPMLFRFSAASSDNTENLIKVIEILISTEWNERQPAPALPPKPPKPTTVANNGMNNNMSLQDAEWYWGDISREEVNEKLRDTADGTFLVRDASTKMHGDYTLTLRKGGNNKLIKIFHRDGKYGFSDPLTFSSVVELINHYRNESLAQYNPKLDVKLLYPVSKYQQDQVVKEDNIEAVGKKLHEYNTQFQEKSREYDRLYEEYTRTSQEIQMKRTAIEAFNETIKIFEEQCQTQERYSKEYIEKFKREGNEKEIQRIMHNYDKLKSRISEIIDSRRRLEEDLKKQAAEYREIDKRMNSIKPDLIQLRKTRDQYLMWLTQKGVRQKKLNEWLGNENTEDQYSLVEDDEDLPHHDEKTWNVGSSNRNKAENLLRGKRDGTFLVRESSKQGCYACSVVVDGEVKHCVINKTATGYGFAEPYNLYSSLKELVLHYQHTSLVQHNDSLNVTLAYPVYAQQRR

For `O=C(Nc1ccc(-c2cn3ccnc3c(N3CCOCC3)n2)cc1)c1ccc(-c2ccccc2)cn1` [12a], the melting point (in general, the temperature of the solid-liquid transition) fell in the range of 268 to 270 °C. Besides, the IC50 – broadly, the point on the concentration scale where inhibition reaches its midpoint – in data set [1] was determined as 58.7 ± 1.99 µM. Besides, the IC50 in data set [2] was determined as 50.3 ± 2.04 µM.
The molecule `O=C(Nc1ccc(-c2cn3ccnc3c(N3CCOCC3)n2)cc1)c1ccc(-c2cccc(F)c2)cn1` [12b, 5-(3-Fluorophenyl)-N-(4-(8-morpholinoimidazo[1,2-a]pyrazin-6-yl)phenyl)picolinamide] came in with a melting point of 261 to 264 °C.
Consider `O=C(Nc1ccc(-c2cn3ccnc3c(N3CCOCC3)n2)cc1)c1ccc(-c2ccc(F)cc2F)cn1` [12c, 5-(2,4-Difluorophenyl)-N-(4-(8-morpholinoimidazo[1,2-a]pyrazin-6-yl)phenyl)picolinamide], for which the melting point lay within 255 to 257 °C.
`O=C(Nc1ccc(-c2cn3ccnc3c(N3CCOCC3)n2)cc1)c1ccc(-c2ccc(C(F)(F)F)cc2)cn1` [12d, N-(4-(8-Morpholinoimidazo[1,2-a]pyrazin-6-yl)phenyl)-5-(4-(trifluoromethyl)phenyl)picolinamide] returned a melting point of 233 to 235 °C. In addition, half-maximal inhibition in data set [1] (IC50) required 15.3 ± 0.88 µM. In addition, 69.7 ± 1.13 µM corresponded to half-maximal inhibition in data set [2] (IC50).
`COc1ccc(-c2ccc(C(=O)Nc3ccc(-c4cn5ccnc5c(N5CCOCC5)n4)cc3)nc2)cc1` [12e, 5-(4-Methoxyphenyl)-N-(4-(8-morpholinoimidazo[1,2-a]pyrazin-6-yl)phenyl)picolinamide] registered a melting point of 255 to 257 °C.
`Cc1cccc(-c2ccc(C(=O)Nc3ccc(-c4cn5ccnc5c(N5CCOCC5)n4)cc3)nc2)c1` [12f, N-(4-(8-Morpholinoimidazo[1,2-a]pyrazin-6-yl)phenyl)-5-(m-tolyl)picolinamide] came in with a melting point of 241 to 243 °C. This molecule gave a 50% inhibitory concentration (IC50) in data set [1] of 19.1 ± 1.1 µM. In data set [2], this molecule displayed a concentration for half-maximal inhibition (IC50) of 26.8 ± 1.47 µM.
`Cc1ccc(-c2ccc(C(=O)Nc3ccc(-c4cn5ccnc5c(N5CCOCC5)n4)cc3)nc2)cc1` [12g, N-(4-(8-Morpholinoimidazo[1,2-a]pyrazin-6-yl)phenyl)-5-(p-tolyl)picolinamide] came in with a melting point of 258 to 260 °C. 68.1 ± 0.89 µM corresponded to half-maximal inhibition in data set [1] (IC50). Also, the half-inhibitory concentration (IC50) in data set [2] was found to be 42.3 ± 0.86 µM.
`O=C(Nc1ccc(-c2cn3ccnc3c(N3CCOCC3)n2)cc1)c1cc(-c2ccccc2)ccn1` [13a, N-(4-(8-Morpholinoimidazo[1,2-a]pyrazin-6-yl)phenyl)-4-phenylpicolinamide] had a melting point of 261 to 262 °C.
On to `O=C(Nc1ccc(-c2cn3ccnc3c(N3CCOCC3)n2)cc1)c1cc(-c2cccc(F)c2)ccn1` [13b, 4-(3-Fluorophenyl)-N-(4-(8-morpholinoimidazo[1,2-a]pyrazin-6-yl)phenyl)picolinamide], for which the melting point was in the range of 237 to 239 °C.
As to `O=C(Nc1ccc(-c2cn3ccnc3c(N3CCOCC3)n2)cc1)c1cc(-c2ccc(F)cc2F)ccn1` [13c, 4-(2,4-Difluorophenyl)-N-(4-(8-morpholinoimidazo[1,2-a]pyrazin-6-yl)phenyl)picolinamide], the melting point lay within 266 to 267 °C.
`O=C(Nc1ccc(-c2cn3ccnc3c(N3CCOCC3)n2)cc1)c1cc(-c2ccc(C(F)(F)F)cc2)ccn1` [13d, N-(4-(8-Morpholinoimidazo[1,2-a]pyrazin-6-yl)phenyl)-4-(4-(trifluoromethyl)phenyl)picolinamide] returned a melting point of 269 to 272 °C. The half-maximal inhibitory concentration (IC50) in data set [1] is 42 ± 1.49 µM. The molecule also came in with an IC50 in data set [2] of 55.6 ± 1.32 µM. Also, the IC50 in data set [3] stood at 62.5 ± 1.99 µM.
For `COc1ccc(-c2ccnc(C(=O)Nc3ccc(-c4cn5ccnc5c(N5CCOCC5)n4)cc3)c2)cc1` [13e, 4-(4-Methoxyphenyl)-N-(4-(8-morpholinoimidazo[1,2-a]pyrazin-6-yl)phenyl)picolinamide] the same measures were 257 to 260 °C, 23.9 ± 0.81 µM, 59.7 ± 2.22 µM and 74.9 ± 1.14 µM.
The matching figures for `Cc1cccc(-c2ccnc(C(=O)Nc3ccc(-c4cn5ccnc5c(N5CCOCC5)n4)cc3)c2)c1` [13f, N-(4-(8-Morpholinoimidazo[1,2-a]pyrazin-6-yl)phenyl)-4-(m-tolyl)picolinamide]: 233 to 234 °C, 10.5 ± 0.82 µM, 65.61 ± 0.52 µM and 74.2 ± 1.86 µM.
In turn, `Cc1ccc(-c2ccnc(C(=O)Nc3ccc(-c4cn5ccnc5c(N5CCOCC5)n4)cc3)c2)cc1` [13g, N-(4-(8-Morpholinoimidazo[1,2-a]pyrazin-6-yl)phenyl)-4-(p-tolyl)picolinamide] came in with a melting point of 271 to 273 °C. The half-inhibitory concentration (IC50) in data set [1] came to 11.2 ± 1.08 µM. In data set [3], the IC50 worked out at 7.89 ± 0.81 µM.
In turn, `O=C(Nc1ccc(-c2cn3ccnc3c(N3CCOCC3)n2)cc1)c1cc(-c2ccccc2)ncn1` [14a, N-(4-(8-Morpholinoimidazo[1,2-a]pyrazin-6-yl)phenyl)-6-phenylpyrimidine-4-carboxamide] displayed a melting point of 272 to 275 °C. The molecule further gave an IC50 in data set [1] of 10.8 ± 1.62 µM.
`Cc1ccc(-c2cc(C(=O)Nc3ccc(-c4cn5ccnc5c(N5CCOCC5)n4)cc3)ncn2)cc1` [14b, N-(4-(8-Morpholinoimidazo[1,2-a]pyrazin-6-yl)phenyl)-6-(p-tolyl)pyrimidine-4-carboxamide] displayed a melting point of 222 to 225 °C. In addition, the inhibition at 10 µM at PI3Kα kinase (at 10 μM, Kinase-Glo, average of two separate determinations, read-out: PI3Kα 10 μM Inhibitory %) amounted to 58 ± 4.4%. Moreover, in data set [1], the half-inhibitory concentration (IC50) turned out to be 8.88 ± 0.97 µM. Moreover, it took 25 ± 1.19 µM to reach half-maximal inhibition in data set [2] (IC50). The IC50 in data set [3] turned out to be 6.69 ± 2.04 µM.
Molecule `COc1ccc(-c2cc(C(=O)Nc3ccc(-c4cn5ccnc5c(N5CCOCC5)n4)cc3)ncn2)cc1` [14c, 6-(4-Methoxyphenyl)-N-(4-(8-morpholinoimidazo[1,2-a]pyrazin-6-yl)phenyl)pyrimidine-4-carboxamide] registered a melting point of 269 to 271 °C. At PI3Kα kinase (Kinase-Glo, average of two separate determinations), this molecule gave an IC50 of 1.25 ± 0.13 µM. The “fold more active than lead compound II against PI3Kα kinase” value on PI3Kα kinase (ratio of IC50 values, 7.39 μM vs 1.25 μM) is reported as 6 fold. Moreover, 6.39 ± 1.04 µM corresponded to half-maximal inhibition in data set [1] (IC50). The same molecule returned an IC50 in data set [2] of 12.7 ± 0.95 µM. This molecule also showed a half-maximal inhibitory concentration (IC50) in data set [3] of 10.2 ± 1.62 µM.
Take `O=C(Nc1ccc(-c2cn3ccnc3c(N3CCOCC3)n2)cc1)c1cc(-c2ccc(Br)cc2)ncn1` [14d, 6-(4-Bromophenyl)-N-(4-(8-morpholinoimidazo[1,2-a]pyrazin-6-yl)phenyl)pyrimidine-4-carboxamide]: the melting point was 221 to 223 °C. Also, 14.4 ± 1.01 µM corresponded to half-maximal inhibition in data set [1] (IC50). For the same molecule, the half-inhibitory concentration (IC50) in data set [2] was 37.1 ± 0.97 µM.
As to `O=C(Nc1ccc(-c2cn3ccnc3c(N3CCOCC3)n2)cc1)c1cc(-c2ccc(Cl)cc2)ncn1` [14e, 6-(4-Chlorophenyl)-N-(4-(8-morpholinoimidazo[1,2-a]pyrazin-6-yl)phenyl)pyrimidine-4-carboxamide], the melting point was in the range of 235 to 237 °C. In data set [1], this molecule returned an IC50 of 17.4 ± 1.01 µM.
`O=C(Nc1ccc(-c2cn3ccnc3c(N3CCOCC3)n2)cc1)c1cc(-c2ccc(F)cc2)ncn1` [14f, 6-(4-Fluorophenyl)-N-(4-(8-morpholinoimidazo[1,2-a]pyrazin-6-yl)phenyl)pyrimidine-4-carboxamide] yielded a melting point of 259 to 260 °C. In addition, the 50% inhibitory concentration (IC50) in data set [1] worked out at 58.2 ± 4.67 µM. Further, the IC50 in data set [3] worked out at 47.1 µM.
Turning to `O=C(Nc1ccc(-c2cn3ccnc3c(N3CCOCC3)n2)cc1)c1cc(-c2ccc(C(F)(F)F)cc2)ncn1` [14g, N-(4-(8-Morpholinoimidazo[1,2-a]pyrazin-6-yl)phenyl)-6-(4-(trifluoromethyl)phenyl)pyrimidine-4-carboxamide], the melting point lay in the range of 278 to 281 °C. Besides, the IC50 in data set [2] is 96.6 ± 2.58 µM.
In the case of `COCCNC(=O)c1nc2c(N3CCOCC3)nc(-c3cnc(N)nc3)cn2c1C` [ETP46992], in the data set with PI3Kα (read-out: IC50 PI3Kα), the IC50 was […].
With `CS(=O)(=O)N1CCN(Cc2cc3nc(-c4cccc5[nH]ncc45)nc(N4CCOCC4)c3s2)CC1` [GDC-0941, 2-(1H-Indazol-4-yl)-6-(4-methanesulfonyl-piperazin-1-ylmethyl)-4-morpholin-4-yl-thieno[3,2-d]pyrimidine, reference compound], the IC50 was 6.99 ± 0.21 µM in data set [1], 0.2 ± 0.08 µM in data set [2] and 0.07 ± 0.03 µM in data set [3].
For `Oc1cccc(-c2nc(N3CCOCC3)c3oc4ncccc4c3n2)c1` [PI-103], the values for the IC50 in the data set with mTOR and in the data set on PI3Kα (read-out: IC50 against PI3Kα) were […] and […], respectively.

(Values after article PMC6155691, “Synthesis and Biological Evaluation of Novel 8-Morpholinoimidazo[1,2-a]pyrazine Derivatives Bearing Phenylpyridine/Phenylpyrimidine-Carboxamides” (Molecules : A Journal of Synthetic Chemistry and Natural …, 2017).)
